# Data as given in patent publication US9181249B2, “Substituted pyrido[3,4-b]pyrazines as GPR6 modulators” (Takeda Pharmaceutical Company Limited, priority 2013, dated 2015).
# Marks after values point to notes of the source that are not given here.
# How the values were obtained:
# [1] = test system: haloperidol-induced catalepsy; assay: Example B Haloperidol-Induced Catalepsy In Vivo Rodent Parkinson's Disease Model; details: Rat
# Text: Haloperidol-Induced Catalepsy In Vivo Rodent Parkinson's Disease Model
# The motor symptoms of Parkinson's disease include akinesia, bradykinesia, rigidity, tremor and postural abnormalities and are associated with the loss of nigral dopaminergic cells and a decline in striatal dopamine levels. Administration of haloperidol to rodents leads to a transient parkinsonian-like state that is reversed by the administration of L-Dopa (Duty, S.; Jenner, P. Br. J. Pharmacol. (2011), 164, 1357-1391) and other drugs that have been clinically validated for the treatment of Parkinson's disease. Haloperidol antagonizes dopamine D2 and, to a lesser extent, D1 receptors in medium spiny neurons that comprise the indirect and direct pathways of the motor circuit respectively. The resultant block of striatal dopamine transmission results in abnormal downstream firing within the basal ganglia circuits that is manifest as symptoms of muscle rigidity and catalepsy. Catalepsy has been postulated to reflect the clinical features of Parkinson's disease, whereby patients experience an inability of to initiate movements.
# Male Sprague-Dawley rats (Charles River, Calco, Italy) weighing 175-200 g are used. Alternatively, male C57Bl6 mice weighing 25-35 g were used. The cataleptic state was induced by the subcutaneous administration of the dopamine receptor antagonist haloperidol (0.3 mg/kg, sc), 90 min before testing the animals on the vertical grid test. For this test, the rats or mice were placed on the wire mesh cover of a 25 cm×43 cm plexiglass cage placed at an angle of about 70 degrees with the bench table. The subject was placed on the grid with all four legs abducted and extended (“frog posture”). The use of such an unnatural posture is essential for the specificity of this test for catalepsy. The time span from placement of the paws until the first complete removal of one paw (descent latency) was measured maximally for 120 sec for rats. For mice, the front paws of a mouse was placed on a horizontal metal bar raised 2″ above a Plexiglas platform and time was recorded for up to 30 seconds per trial. The test ended when the animal's front paws returned to the platform or after 30 seconds. The test was repeated three times and the average of the three trials was reported as the intensity index of catalepsy.
# Catalepsy was measured 30 min, 120 min, and/or 240 min after dosing the subjects a 0.3 mg/kg i.p. dose of haloperidol along with the GPR6 modulator test compound. Test compound plasma and brain levels were determined by collected tissue samples at the end of the experiment, which was either at the 120 or 240 min time point. A representative number of compounds of the invention were administered in a dose range from 0.1 to 100 mg/kg i.p, sc or po in conjunction with haloperidol. The A2a antagonist KW6002 (istradefylline) was dosed at 0.6 mg/kg i.p. as a positive control.
# [2] = test system: 6-hydroxydopamine lesioned rats (motor activity); assay: Example C 6-Hydroxydopamine Lesion Model In Vivo Rodent Parkinson's Disease Model; details: adult female rats, bilateral striatal 6-hydroxydopamine lesion, counts for 3 hours after dosing
# Method: 6-Hydroxydopamine Lesion Model In Vivo Rodent Parkinson's Disease Model
# Adult female rats (10) were first assessed for pre-surgery motor activity using an automated activity tracking system that records beam breaks across the testing arena floor. Beam breaks were summed over the first 3 hours after the animals were placed into the arena and recorded as activity counts. To selectively damage dopaminergic nerve terminals in the striatum, 20 μg of the 6-hydroxydopamine was injected directly into the striatum bilaterally (i.e., on both sides of the brain). After 4 weeks of recovery, the rats were again tested for motor activity, and a significant reduction in activity counts was observed. Vehicle and the compound of Example 47 (0.5% methylcellulose) was orally dosed at 0.1, 1.0, or 10 mg/kg in a cross-over study design (5-10 day wash out period), and after dosing activity counts were measured for 3 hours. At the end of the study period, when each animal had received each treatment once, the data were analyzed. The activity counts (standard error of the mean) for the group pre-surgery and post-surgery and for treated and vehicle control were determined and are provide in Table 3 below: […]
smiles,measurement,setting,value
"CC(=O)N1CCc2nc(N3CCC(Oc4ccc(F)cc4F)CC3)c(NC(C)C)nc2C1 [Example 47, 1-(2-(4-(2,4-difluorophenoxyl)piperidin-1-yl)-3-(isopropylamino)-7,8-dihydropyrido[3,4-b]pyrazin-6(5H)-yl)ethanone]",% reversal 30 min,[1]; 0.1 mpk i.p.,−5.7%
same,% reversal 120 min,[1]; 0.1 mpk i.p.,27.3%
same,% reversal 30 min,[1]; 1 mpk i.p.,39.1%
same,% reversal 120 min,[1]; 1 mpk i.p.,57.9* %
same,% reversal 30 min,[1]; 10 mpk i.p.,83.4* %
same,% reversal 120 min,[1]; 10 mpk i.p.,76.5* %
same,% reversal 30 min,[1]; 30 mpk i.p.,75.7* %
same,% reversal 120 min,[1]; 30 mpk i.p.,82.1* %
same,"activity counts, Mean",[2]; orally dosed 0.1 mg/kg,11422*
same,"activity counts, Mean",[2]; orally dosed 1.0 mg/kg,15334*
same,"activity counts, Mean",[2]; orally dosed 10 mg/kg,19368*
